{
  "source": "paper PMC11052913",
  "about": "“Determination of Regorafenib monohydrate (colorectal anticancer drug) solubility in supercritical CO2: Experimental and thermodynamic modeling” (Heliyon, 2024)",
  "key": {"[1]": {"conditions": "cited from earlier work"}, "[2]": {"assay": "Solubility of REG in supercritical CO2, static isobaric-isothermal method with UV-Vis quantification", "format": "physicochemical", "experimental": "The solubility of REG in ScCO2 was measured using a pilot-scale apparatus, as depicted in Fig. 1. […] An F-1 CO2 cylinder, an F-2 needle valve, an F-3 molecular sieve filter, an F-4 refrigeration unit, an F-5 high-pressure pump, an F-6 air compressor, an F-7 oven, an F-8 magnetic stirrer, an F-9 high-pressure equilibrium cell, an F-10 3-position valve, and an F-16 back-pressure valve were all part of the apparatus.\nIn each experimental trial, a consistent amount of 1 g of the REG drug was administered into the immobile cell, which was subsequently positioned inside a thermal chamber. The aforementioned measure was enacted with the purpose of ensuring that the temperature remains within a narrow range of ±0.1 K from the designated experimental point. At both cell ends, stainless-steel sintered filters were added to limit undissolved REG. After that, high-pressure CO2 was poured into the cell and allowed to sit for 70 min in order to obtain saturation. Based on earlier studies, we know that 60 min is sufficient to achieve balance. The isobaric-isothermal category includes this kind of measurement. Throughout the experiment, the target temperatures and pressure levels were kept within ±0.1 K and ±0.1 MPa, respectively, for every data point. Following the triplicate execution of the experiments, the average solubility values were computed.\nAfter reaching equilibrium, we used a 2-position 6-way port valve to collect 600 μL of saturated ScCO2 samples. The materials were thereafter transferred into a vial that was pre-filled with dimethyl sulfoxide (DMSO). The flow rate was managed by means of a micrometer valve. Each experiment was finished with the flow line being purified with 1 mL of DMSO after 5 mL of the solution had been collected. Using a UNICO-4802 UV–Vis spectrophotometer set to a peak wavelength (λmax) of 275 nm, we examined the absorbance of REG in DMSO for solubility assessment. The solubility of REG in ScCO2 was determined according to a given equation. The amount of REG dissolved in ScCO2, denoted as (y2), was measured in terms of mole fraction. […] The quantification of the dissolved substance was accomplished through the measurement of UV absorbance. The calculation of the moles of REG (nREG) and CO2 (n1) in the loop was performed as follows:(1) nREG=CREG(g/L).VREG(L)/MREG(g/mol) (2) n1=V1(L).ρ1(g/L)/M1(g/mol)\nThe concentration of REG (g/L) in the collection vial is denoted as CREG. The sampling loop and the collection vial are represented by V1 (L) and VREG (L), respectively. The symbols M1 and MREG represent the molar masses of carbon dioxide (CO2) and a substance denoted as REG, respectively. The method out-lined in references was employed to determine the equilibrium mole fraction of REG, denoted as y2, in supercritical CO2 under varying temperatures and pressures.(3) y2=nREG/n1+nREG\nThe following equation was applied to determine the solubility of REG, S (in g/L), in the supercritical CO2(4) S=CREG(g/L).VREG(L)/V1(L)\nEq. (4) can be reformulated as below:(5) S=ρMREG/M1y2/(1−y2) In fact, Eq. (5) is another form of Eq. (4)."}, "[3]": {"assay": "Total, vaporization and solvation enthalpies of the REG-ScCO2 system estimated from Chrastil, Kumar-Johnston and Bartle et al. model constants", "format": "physicochemical", "excerpt": "In Fig. 3, the self-consistency test of experimental REG solubility data employed the models Chrastil, Kumar-Johnston, Bartle et al., and Mendez-Teja. […] In other words, wherein all data points at different isotherms falls onto a single straight line, indicating the self-consistency test for the solubility of REG in ScCO2 at different temperatures.\nAnalogous techniques were applied for Galantamine, Clonazepam, Lansoprazole, and Esomeprazole. Finally, the total (ΔHtot-=-41.16 kJ/mol), vaporization (ΔHvap-=-60.04 kJ/mol), and solvation (ΔHsol-=-18.88 kJ/mol) enthalpies for the REG-ScCO2 binary system were estimated as part of this work. More detail of enthalpies of the REG can be seen in Table 4."}, "[4]": {"design": "method as in PMID 28214672, doi:10.1016/j.jddst.2019.101462", "conditions": "pH 6.5 and 22–23 °C; cited from earlier work"}},
  "note": "Counter-ions that a name gives are not always drawn. Like-named read-outs stand apart in the source and are kept apart here. Marks after values point to notes of the source that are not given here.",
  "data": [
    {"compound": "Cc1nc(Nc2ncc(C(=O)Nc3c(C)cccc3Cl)s2)cc(N2CCN(CCO)CC2)n1", "note": "[Dasatinib monohydrate]", "values": [
      {"measurement": "Mole fraction solubility in ScCO2", "setting": "[1]; N 24, T 328-338 K, P 12-27 MPa, ref [11] of supplement", "value": "0.45 - 9.08 (×10^6) mole fraction"}
    ]},
    {"compound": "CNC(=O)c1cc(Oc2ccc(NC(=O)Nc3ccc(Cl)c(C(F)(F)F)c3)c(F)c2)ccn1", "note": "[Regorafenib monohydrate, 4-(4-(3-(4-chloro-3-(trifluoromethyl)phenyl)ureido)-3-fluorophenoxy)-N-methylpicolinamide]", "values": [
      {"measurement": "S (equilibrium solubility) in ScCO2", "setting": "[2]; 308 K, 120 bar, CO2 density 769 kg/m^3", "value": 10.6, "unit": "µg/mL"},
      {"measurement": "S (equilibrium solubility) in ScCO2", "setting": "[2]; 308 K, 150 bar, CO2 density 817 kg/m^3", "value": 15.5, "unit": "µg/mL"},
      {"measurement": "S (equilibrium solubility) in ScCO2", "setting": "[2]; 308 K, 180 bar, CO2 density 849 kg/m^3", "value": 18, "unit": "µg/mL"},
      {"measurement": "S (equilibrium solubility) in ScCO2", "setting": "[2]; 308 K, 210 bar, CO2 density 875 kg/m^3", "value": 22.6, "unit": "µg/mL"},
      {"measurement": "S (equilibrium solubility) in ScCO2", "setting": "[2]; 308 K, 240 bar, CO2 density 896 kg/m^3", "value": 29.2, "unit": "µg/mL"},
      {"measurement": "S (equilibrium solubility) in ScCO2", "setting": "[2]; 308 K, 270 bar, CO2 density 914 kg/m^3", "value": 31.5, "unit": "µg/mL"},
      {"measurement": "S (equilibrium solubility) in ScCO2", "setting": "[2]; 318 K, 120 bar, CO2 density 661 kg/m^3", "value": 7.2, "unit": "µg/mL"},
      {"measurement": "S (equilibrium solubility) in ScCO2", "setting": "[2]; 318 K, 150 bar, CO2 density 744 kg/m^3", "value": 9.8, "unit": "µg/mL"},
      {"measurement": "S (equilibrium solubility) in ScCO2", "setting": "[2]; 318 K, 180 bar, CO2 density 791 kg/m^3", "value": 12.4, "unit": "µg/mL"},
      {"measurement": "S (equilibrium solubility) in ScCO2", "setting": "[2]; 318 K, 210 bar, CO2 density 824 kg/m^3", "value": 28.7, "unit": "µg/mL"},
      {"measurement": "S (equilibrium solubility) in ScCO2", "setting": "[2]; 318 K, 240 bar, CO2 density 851 kg/m^3", "value": 31.9, "unit": "µg/mL"},
      {"measurement": "S (equilibrium solubility) in ScCO2", "setting": "[2]; 318 K, 270 bar, CO2 density 872 kg/m^3", "value": 37.2, "unit": "µg/mL"},
      {"measurement": "S (equilibrium solubility) in ScCO2", "setting": "[2]; 328 K, 120 bar, CO2 density 509 kg/m^3", "value": 3.6, "unit": "µg/mL"},
      {"measurement": "S (equilibrium solubility) in ScCO2", "setting": "[2]; 328 K, 150 bar, CO2 density 656 kg/m^3", "value": 7, "unit": "µg/mL"},
      {"measurement": "S (equilibrium solubility) in ScCO2", "setting": "[2]; 328 K, 180 bar, CO2 density 725 kg/m^3", "value": 10, "unit": "µg/mL"},
      {"measurement": "S (equilibrium solubility) in ScCO2", "setting": "[2]; 328 K, 210 bar, CO2 density 769 kg/m^3", "value": 33.1, "unit": "µg/mL"},
      {"measurement": "S (equilibrium solubility) in ScCO2", "setting": "[2]; 328 K, 240 bar, CO2 density 802 kg/m^3", "value": 37.1, "unit": "µg/mL"},
      {"measurement": "S (equilibrium solubility) in ScCO2", "setting": "[2]; 328 K, 270 bar, CO2 density 829 kg/m^3", "value": 39.2, "unit": "µg/mL"},
      {"measurement": "S (equilibrium solubility) in ScCO2", "setting": "[2]; 338 K, 120 bar, CO2 density 388 kg/m^3", "value": 1.3, "unit": "µg/mL"},
      {"measurement": "S (equilibrium solubility) in ScCO2", "setting": "[2]; 338 K, 150 bar, CO2 density 557 kg/m^3", "value": 3.7, "unit": "µg/mL"},
      {"measurement": "S (equilibrium solubility) in ScCO2", "setting": "[2]; 338 K, 180 bar, CO2 density 652 kg/m^3", "value": 7.2, "unit": "µg/mL"},
      {"measurement": "S (equilibrium solubility) in ScCO2", "setting": "[2]; 338 K, 210 bar, CO2 density 710 kg/m^3", "value": 34.6, "unit": "µg/mL"},
      {"measurement": "S (equilibrium solubility) in ScCO2", "setting": "[2]; 338 K, 240 bar, CO2 density 751 kg/m^3", "value": 41, "unit": "µg/mL"},
      {"measurement": "S (equilibrium solubility) in ScCO2", "setting": "[2]; 338 K, 270 bar, CO2 density 783 kg/m^3", "value": 55.3, "unit": "µg/mL"},
      {"measurement": "crossover pressure of the solubility isotherms in ScCO2", "setting": "[2]; isotherms 308–338 K", "value": "18–21 MPa"},
      {"measurement": "maximum equilibrium mole fraction in ScCO2", "setting": "[2]; over 308–338 K and 120–270 bar, maximum at 338 K and 27 MPa, listed as REG", "value": "6.44×10^−6 mole fraction"},
      {"measurement": "minimum equilibrium mole fraction in ScCO2", "setting": "[2]; over 308–338 K and 120–270 bar, minimum at 338 K, listed as REG", "value": "3.06×10^−7 mole fraction"},
      {"measurement": "vaporization enthalpy ΔHvap", "setting": "[3]; based on Bartle et al. model", "value": 14.35, "unit": "kcal/mol"},
      {"measurement": "ΔHtot", "setting": "[3]; based on Kumar-Johnston model", "value": 9.833, "unit": "kcal/mol"},
      {"measurement": "ΔHtot", "setting": "[3]; based on the Chrastil model", "value": 9.84, "unit": "kcal/mol"},
      {"measurement": "solubility in water", "setting": "[4]", "value": 0.12, "unit": "µg/mL"}
    ]},
    {"compound": "Cc1ccc(C(=O)O)cc1", "note": "[4-Methylbenzoic acid]", "values": [
      {"measurement": "Mole fraction solubility in ScCO2", "setting": "[1]; N 18, T 313-333 K, P 11-24.6 MPa, ref [3] of supplement", "value": "43-702 (×10^6) mole fraction"}
    ]},
    {"compound": "CS(=O)(=O)OCCCCOS(C)(=O)=O", "note": "[Busulfan]", "values": [
      {"measurement": "Mole fraction solubility in ScCO2", "setting": "[1]; N 32, T 308-328 K, P 12-40 MPa, ref [5] of supplement", "value": "32.7-865 (×10^6) mole fraction"}
    ]},
    {"compound": "O=C1CN=C(c2ccccc2Cl)c2cc([N+](=O)[O-])ccc2N1", "note": "[Clonazepam]", "values": [
      {"measurement": "Mole fraction solubility in ScCO2", "setting": "[1]; N 28, T 308-338 K, P 12-30 MPa, ref [1] of supplement", "value": "3.9-72.6 (×10^6) mole fraction"}
    ]},
    {"compound": "O=C(O)c1ccccc1Nc1cccc(Cl)c1Cl", "note": "[Clofenamic acid]", "values": [
      {"measurement": "Mole fraction solubility in ScCO2", "setting": "[1]; N 24, T 313-333 K, P 12-36 MPa, ref [9] of supplement", "value": "1.54-35.44 (×10^6) mole fraction"}
    ]},
    {"compound": "COc1cc2nc(N3CCN(C(=O)c4ccco4)CC3)nc(N)c2cc1OC", "note": "[Prazosin Hydrochloride]", "values": [
      {"measurement": "Mole fraction solubility in ScCO2", "setting": "[1]; N 24, T 328-338 K, P 12-27 MPa, ref [12] of supplement", "value": "1.5-72 (×10^6) mole fraction"}
    ]},
    {"compound": "Nc1nnc(-c2cccc(Cl)c2Cl)c(N)n1", "note": "[Lamotrigine]", "values": [
      {"measurement": "Mole fraction solubility in ScCO2", "setting": "[1]; N 36, T 318-338 K, P 12.16-35.46 MPa, ref [8] of supplement", "value": "0.3-5.9 (×10^6) mole fraction"}
    ]},
    {"compound": "CC(=O)N(c1ccccc1)c1ccc(C)cc1", "note": "[4-Methyl-N-phenylacetanilide]", "values": [
      {"measurement": "Mole fraction solubility in ScCO2", "setting": "[1]; N 21, T 308-328 K, P 12.16-22.5 MPa, ref [2] of supplement", "value": "38.4-480.2 (×10^6) mole fraction"}
    ]},
    {"compound": "CC(C)(Oc1ccc(Cl)cc1)C(=O)O", "note": "[Clofibric acid]", "values": [
      {"measurement": "Mole fraction solubility in ScCO2", "setting": "[1]; N 21, T 308-328 K, P 10.01-22.02 MPa, clofibric acid, ref [7] of supplement", "value": "32.1-856 (×10^6) mole fraction"}
    ]},
    {"compound": "Cc1ccc(C)c(OCCCC(C)(C)C(=O)O)c1", "note": "[Gemfibrozil]", "values": [
      {"measurement": "Mole fraction solubility in ScCO2", "setting": "[1]; N 21, T 308-328 K, P 10.01-22.02 MPa, gemfibrozil, ref [7] of supplement", "value": "29.4-4190 (×10^6) mole fraction"}
    ]}
  ]
}
